Laboratory results as given in the Kinase Knowledgebase extract (Sharma et al. 2016).

Biological target: PIK3CG (UniProt P48736)
Test: Inhibition of PIK3CG Kinase Activity

Sequence of PIK3CG (P48736 whole entry, looked up): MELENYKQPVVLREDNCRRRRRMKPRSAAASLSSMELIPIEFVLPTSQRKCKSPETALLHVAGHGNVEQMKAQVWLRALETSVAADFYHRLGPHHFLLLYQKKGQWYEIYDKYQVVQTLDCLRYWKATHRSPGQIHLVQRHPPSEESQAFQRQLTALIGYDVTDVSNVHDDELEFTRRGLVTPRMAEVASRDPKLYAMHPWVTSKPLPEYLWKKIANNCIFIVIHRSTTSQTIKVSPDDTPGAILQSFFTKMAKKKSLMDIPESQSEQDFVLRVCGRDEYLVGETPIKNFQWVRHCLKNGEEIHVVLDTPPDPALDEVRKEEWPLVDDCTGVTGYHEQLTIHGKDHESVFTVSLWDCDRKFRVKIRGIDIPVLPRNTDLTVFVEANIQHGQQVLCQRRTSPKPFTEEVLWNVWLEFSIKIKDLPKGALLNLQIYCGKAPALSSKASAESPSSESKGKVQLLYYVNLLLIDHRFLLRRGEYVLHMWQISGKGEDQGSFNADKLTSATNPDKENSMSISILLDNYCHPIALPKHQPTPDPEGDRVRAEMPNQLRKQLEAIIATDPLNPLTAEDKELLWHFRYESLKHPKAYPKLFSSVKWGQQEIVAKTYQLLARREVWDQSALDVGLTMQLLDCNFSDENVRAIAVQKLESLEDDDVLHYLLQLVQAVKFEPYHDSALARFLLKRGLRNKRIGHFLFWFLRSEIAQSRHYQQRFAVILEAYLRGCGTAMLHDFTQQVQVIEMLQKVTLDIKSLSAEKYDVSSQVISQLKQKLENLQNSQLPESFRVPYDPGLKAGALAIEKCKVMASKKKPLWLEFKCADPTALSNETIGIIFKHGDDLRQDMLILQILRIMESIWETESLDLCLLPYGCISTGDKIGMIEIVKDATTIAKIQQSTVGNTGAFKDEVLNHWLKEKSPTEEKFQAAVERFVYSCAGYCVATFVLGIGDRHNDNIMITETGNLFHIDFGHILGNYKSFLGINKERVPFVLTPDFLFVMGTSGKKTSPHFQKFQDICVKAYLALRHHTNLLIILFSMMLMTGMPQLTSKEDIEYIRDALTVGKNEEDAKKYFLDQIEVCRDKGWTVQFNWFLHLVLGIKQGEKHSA

IC50 [nM]	SMILES
650	Cc1cc(C)cc(CN2CCOc3ccc(/C=C4\SC(=S)NC4=O)cc32)c1
3500	Cc1ccc(NC(=O)N2CCCOc3ccc(/C=C4\SC(=S)NC4=O)cc32)cc1
2610	N#Cc1ccc(C(=O)N2CCCOc3ccc(/C=C4\SC(=S)NC4=O)cc32)cc1
330	CC1(C)C2CCC1(CS(=O)(=O)N1CCOc3ccc(/C=C4\SC(=S)NC4=O)cc31)CC2
14	COc1cc(NC(=O)N2CCOc3ccc(/C=C4\SC(=S)NC4=O)cc32)cc(OC)c1
115	CN1CCN(Cc2ccccc2C(=O)N2CCOc3ccc(/C=C4\SC(=S)NC4=O)cc32)CC1
1380	O=C1NC(=S)S/C1=C\c1ccc2c(c1)N(C(=O)c1ccc(Cl)c(Cl)c1)CCCO2
4600	Cc1oc(C(C)(C)C)cc1C(=O)N1CCCOc2ccc(/C=C3\SC(=S)NC3=O)cc21
640	CC(=O)Oc1ccc(OC(=O)N2CCCOc3ccc(/C=C4\SC(=S)NC4=O)cc32)cc1
1520	O=C1NC(=S)S/C1=C\c1ccc2c(c1)N(C(=O)/C=C/c1ccccc1)CCCO2
704	Cc1ccc(OC(=O)N2CCCOc3ccc(/C=C4\SC(=S)NC4=O)cc32)cc1
1530	O=C1NC(=S)S/C1=C\c1ccc2c(c1)N(C(=O)c1ccc3occc3c1)CCCO2
424	O=C1NC(=S)S/C1=C\c1ccc2c(c1)N(C(=O)Oc1ccccc1)CCCO2
4010	O=C1NC(=S)S/C1=C\c1ccc2c(c1)N(C(=O)/C=C/c1cccc(C(F)(F)F)c1)CCCO2
1000	O=C1NC(=S)S/C1=C\c1ccc2c(c1)N(C(=O)C1CCCC1)CCCO2
115	O=C1NC(=S)S/C1=C\c1ccc2c(c1)N(C(=O)C1CC1)CCCO2
65	O=C1NC(=S)S/C1=C\c1ccc2c(c1)N(C(=O)c1ccco1)CCO2
4200	CCCCCCc1ccc(C(=O)N2CCCOc3ccc(/C=C4\SC(=S)NC4=O)cc32)cc1
4990	O=C1NC(=S)S/C1=C\c1ccc2c(c1)N(C(=O)c1ccc3c(c1)C(=O)c1ccccc1C3=O)CCCO2
1650	O=C1NC(=S)S/C1=C\c1ccc2c(c1)N(C(=O)COCc1ccccc1)CCCO2
1140	O=C1NC(=S)S/C1=C\c1ccc2c(c1)N(C(=O)Cc1cccs1)CCCO2
1320	COc1cc(NC(=O)N2CCCOc3ccc(/C=C4\SC(=S)NC4=O)cc32)cc(OC)c1
